Values of other authors as cited in publication PMC7163368 (British Journal of Clinical Pharmacology, 2020).

Conditions: cited from earlier work

| SMILES | Oral bioavailability [%] | other results |
| --- | --- | --- |
| CC#CCn1c(N2CCC[C@@H](N)C2)nc2c1c(=O)n(Cc1nc(C)c3ccccc3n1)c(=O)n2C [linagliptin] |  | Terminal half‐life (currently available oral gliptines): 105 h |
| N#C[C@@H]1C[C@@H]2C[C@@H]2N1C(=O)[C@@H](N)C12CC3CC(CC(O)(C3)C1)C2 [saxagliptin] | 67 |  |
| N[C@@H](CC(=O)N1CCn2c(nnc2C(F)(F)F)C1)Cc1cc(F)c(F)cc1F [sitagliptin] |  | Plasma levels higher in female subjects (female vs male subjects): approximately 25% |
| N#C[C@@H]1CCCN1C(=O)CNC12CC3CC(CC(O)(C3)C1)C2 [vildagliptin] | 85 |  |
